Test results reported in patent US5880076A, “Compositions comprising glycacarbamate and glycaurea compounds” (Lever Brothers Company, Division of Conopco, Inc., priority 1997, dated 1999).
Each block holds one molecule with its values, some of them ahead of it.

What was measured:
[1] = Surface Tension Reduction; type: physicochemical
Description: An important characteristic feature that surfactants have is the tendency for them to absorb at the water/air interface in an oriented manner, thereby altering the interfacial free energy of that surface. The surface free energy per unit area or surface tension (γ), is a measure of this work and may be considered as the minimum amount of work required to bring sufficient surfactant molecules to the surface.

[2] = Water Solubility and Krafft Point (0.1% solution in water, 40° C.)
Description: The temperature at which a surfactant forms micelles instead of precipitates is referred to as the Krafft point (Tk), and at or below this temperature the solubility of a surfactant becomes equal to its CMC (numerical value at which micelles are formed).

[3] = Critical Micelle Concentration (micelle formation); type: physicochemical
Description: The critical micelle concentration (CMC) is defined as the concentration at which a surfactant forms micelles in aqueous solution. […] A necessary and sufficient condition for CMC formation and surface tension reduction is the presence of both hydrophilic and hydrophobic functional groups. The hydrophilic portion provides strong interaction between the surfactant at the interface and with the surrounding water phase. The hydrophobic portion provides spontaneous adsorption of the surfactant at the interface and strong interaction with the adjacent air phase. If any of these functions are not performed, then CMC formation and surface tension reduction will not occur. For significant surface activity, a properly balanced hydrophilic and hydrophobic character is essential.

[4] = Flow aids: water uptake and appearance of intimate admixtures; type: physicochemical; settings: for handling and flowing characteristics (in words): intimate admixtures with ODS, SCMOS, CP-5 or CP-7; for Appearance (flow) / % H2O Uptake: 25° C., 65% R.H.; for % H2O Uptake: based on builder
Description: It is known in the are that certain ingredients are hygroscopic in nature and liquify after exposure to moisture after a few days. […] Samples were removed periodically, weighed and returned to R. H. chamber. Percent water uptake was based on the amound of builder present. % H2 O Uptake=grams of water absorbed/grams of builder×100 Identical mixtures of ODS, SCMOS, CP-5 or CP-7 and methyl α-D-glucose-6-O-monolaurate (c12 Mgluc), dodecyl β-D-glucopyranoside (C12 Gluc), dodecyl β-D-maltoside (C12 Malt), D-glucose or D-sorbitol were also prepared and are used for comparison. When the comparative sugar surfactant of monosacchardie are used, percent water uptake was based on the amount of saccharide present. % H2 O Uptake=grams of water absorbed/grams of saccharide×100

[5] = Pearlescent/Suspending Action in prototype personal product compositions; type: physicochemical; settings: for Appearance (pearlescence/suspending): 15.0% sodium lauryl sulfate, room temperature, 1 month
Experimental: The formulations were placed in a clear jar and stored for 1 month. The prototype personal product compositions are as follows:
Personal Product Compositions Comprising Sodium
(§1) Lauryl Sulfate and Glycacarbamate Compounds
N-Tallow D-Glucocarbamate
0.5-4.0% Pearlescent/Suspending
(§2) 2.0% Viscosity Cobuilder
(§3) Lauryl Sulfate and Glycaurea Compounds
(§4) The above formulations were prepared by admixing the above ingredients in listed order and heating the mixture to about 80° C. with rapid stirring. The mixture was then cooled to about 40° C., placed in a clear jar and stored at room temperature.
For a pearlecent personal product formulation to be successful it must have good shelf life and should not separate upon standing.

[6] = Clarity Enhancement of prototype detergent compositions; type: physicochemical; settings: detergent formulation
Experimental: The formulations were placed in a clear jar and stored for 1 month. The prototype detergent compositions are as follows:
(§5) Detergent Compositions Comprising Sodium
as §1
N-Coconut D-Glucocarbamate
0.5-4.0% Foam Stabilizer/Thickener
as §3, §4
For a clear detergent formulation to be successful it must have good shelf life and should not become turbid or produce sedimentation upon standing.

[7] = Viscosity Modification of Sodium Lauryl Sulfate prototype detergent compositions; type: physicochemical; settings: for Appearance (viscosity) / Viscosity Increase: 15.0% sodium lauryl sulfate; for Viscosity Increase: 22° C.
Experimental: The prototype detergent compositions are as follows:
as §5, §1
N-Dodecyl D-Glucocarbamate
2.0-7.0% Foam Stabilizer/Thickener
as §2, §3, §4
It is well known that the viscosity of a liquid composition comprision of anionic surfactant can be modified by the addition of inorganic salts, such as sodium chloride. However, in the absence of an organic modifier, high levels of salt may be necessary to achieve the required viscosity which may lead to problems of storage at cold temperature or even salting our certain ingrediets. In practice, however, the viscosity of a liquid compositionis modified by the simultaneous addition of thickener and small amounts of inorganic salt (viscosity cobuilder). The combined effect is greater than either one alone. The viscosity of the above prototype detergent compositions comprising various amounts of glycacarbamate/urea compound are as follows: […]

[8] = Viscosity Enhancement/Foam Stabilization (Brookfield Digital Viscometer); settings: for Viscosity (Centipoise): 22° C.
[9] = Water solubility and turbidity in aqueous personal product and detergent compositions (statement)

- Surface tension reduction (γ) at 40° C. ([1]; 40° C.): No
- H2O Solubility at 40° C. ([2]; 40° C.): No
- Krafft point (Tk) ([2]; 40° C.): Above Tk
- H2O Solubility at 40° C. ([2]; 40° C., listed as F): insoluble in water
- CMC at 40° C. (micelle formation) ([3]; 40° C.): No
- CMC at 40° C. (micelle formation) ([3]; 40° C., listed as F): do not form micelles
Molecule: CCCCCCCCCCCCCCCCCCN1C[C@H](O)[C@H]([C@H](O)[C@H](O)CO)OC1=O [N-Octadecyl D-Glucocarbamate]
- Surface tension reduction (γ) at 40° C. ([1]; 40° C., listed as F): do not significantly reduce the surface tension of water

- Surface tension reduction (γ) at 40° C. ([1]; 40° C.): No
- H2O Solubility at 40° C. ([2]; 40° C.): No
- Krafft point (Tk) ([2]; 40° C.): Above Tk
- CMC at 40° C. (micelle formation) ([3]; 40° C.): No
- Appearance (pearlescence/suspending) ([5]; 0.5% opacifier): Pearlescent/Suspending Action
- Appearance (pearlescence/suspending) ([5]; 1.0% opacifier): Pearlescent/Suspending Action
- Appearance (pearlescence/suspending) ([5]; 2.0% opacifier): Pearlescent/Suspending Action
- Appearance (pearlescence/suspending) ([5]; 3.0% opacifier): Pearlescent/Suspending Action
- Appearance (pearlescence/suspending) ([5]; 4.0% opacifier): Pearlescent/Suspending Action
- pearlescence (in words) ([5]; sodium lauryl sulfate compositions): excellent pearlescence
Molecule: CCCCCCCCCCCCCCCCN(C[C@H](O)[C@@H](O)[C@H](O)[C@H](O)CO)C(N)=O [N-Hexadecyl D-Glucourea]
- handling and flowing characteristics (in words) [4]: improved the handling and flowing characteristics

- clarity (in words) [6]: clear without sedimentation
- Appearance (viscosity) ([7]; 2.0% thickener): Slightly Viscous
- Viscosity Increase ([7]; 2.0% thickener): Yes
- Appearance (viscosity) ([7]; 4.0% thickener): Viscous
- Viscosity Increase ([7]; 4.0% thickener): Yes
- Appearance (viscosity) ([7]; 7.0% thickener): Very Viscous
- Viscosity Increase ([7]; 7.0% thickener): Yes
- Surface tension reduction (γ) at 40° C. ([1]; 40° C.): Yes
- H2O Solubility at 40° C. ([2]; 40° C.): Yes
- Krafft point (Tk) ([2]; 40° C.): Below Tk
- H2O Solubility at 40° C. ([2]; 40° C., listed as M): insoluble in water
- Foam Stability ([8]; 4.0% thickener): Yes
- viscosity increase from normal viscosity ([8]; 4.0% thickener): 99-104 times
- Viscosity (Centipoise) ([8]; 4.0% thickener): 2295 Centipoise
- Foam Stability ([8]; 4.0% thickener, listed as N-dodecyl D-glucourea): stabilize foam
- CMC at 40° C. (micelle formation) ([3]; 40° C.): Yes
- CMC at 40° C. (micelle formation) ([3]; 40° C., listed as M): do not form micelles
Molecule: CCCCCCCCCCCCN(C[C@H](O)[C@@H](O)[C@H](O)[C@H](O)CO)C(N)=O [N-Dodecyl D-Glucourea]
- viscosity increase (in words) ([7]; compared with D-glucose): increases the viscosity of that composition more effectively than D-glucose
- Surface tension reduction (γ) at 40° C. ([1]; 40° C., listed as M): do not significantly reduce the surface tension of water
- viscosity enhancement and foam stabilization (comparison in words) ([8]; compared with lauramide DEA, cocoamide MEA, Neodol 91-6 and D-glucose): enhance viscosity and stabilze foam compartively to lauramide diethanolamine (DEA), but better than cocoamide menoethanolamine (MEA), Neodol 91-6 (C9 -C11 alcohol ethoxylate with 6 moles of ethylene oxide) and D-glucose
- handling and flowing characteristics (in words) [4]: improved the handling and flowing characteristics

- Surface tension reduction (γ) at 40° C. ([1]; 40° C.): No
- H2O Solubility at 40° C. ([2]; 40° C.): No
- Krafft point (Tk) ([2]; 40° C.): Above Tk
- H2O Solubility at 40° C. ([2]; 40° C., listed as E): insoluble in water
- CMC at 40° C. (micelle formation) ([3]; 40° C.): No
- CMC at 40° C. (micelle formation) ([3]; 40° C., listed as E): do not form micelles
Molecule: CCCCCCCCCCCCCCCCN1C[C@H](O)[C@H]([C@H](O)[C@H](O)CO)OC1=O [N-Hexadecyl D-Glucocarbamate]
- Surface tension reduction (γ) at 40° C. ([1]; 40° C., listed as E): do not significantly reduce the surface tension of water

- Surface tension reduction (γ) at 40° C. ([1]; 40° C.): Yes
- H2O Solubility at 40° C. ([2]; 40° C.): Yes
- Krafft point (Tk) ([2]; 40° C.): Below Tk
- CMC at 40° C. (micelle formation) ([3]; 40° C.): Yes
Molecule: CCCCCCCCCCN(C[C@H](O)[C@@H](O)[C@H](O)[C@H](O)CO)C(N)=O [N-Decyl D-Glucourea]

- Appearance (viscosity) ([7]; 2.0% thickener): Purable Liquid
- Viscosity Increase ([7]; 2.0% thickener): No
- Appearance (viscosity) ([7]; 4.0% thickener): Purable Liquid
- Viscosity Increase ([7]; 4.0% thickener): No
- Appearance (viscosity) ([7]; 7.0% thickener): Purable Liquid
- Viscosity Increase ([7]; 7.0% thickener): No
- Foam Stability ([8]; 4.0% thickener): No
- Viscosity (Centipoise) ([8]; 4.0% thickener): 27 Centipoise
Molecule: O=C[C@H](O)[C@@H](O)[C@H](O)[C@H](O)CO [D-Glucose, D-glucose, reference compound]

Molecule: O=C([O-])CC(OC(CC(=O)[O-])C(=O)[O-])C(=O)[O-].[Na+].[Na+].[Na+].[Na+] (centres unmarked) [Na4 ODS, tetrasodium oxydisuccinate, reference compound]
- Appearance (flow) ([4]; 4 days): Liquid
- % H2O Uptake ([4]; 4 days): 59%

- Appearance (flow) ([4]; 9 days): Sticky Paste
- % H2O Uptake ([4]; 9 days): 38%
Molecule: tetrasodium sulfocarboxymethyloxysuccinate [Na4 SCMOS, reference compound]

- Surface tension reduction (γ) at 40° C. ([1]; 40° C.): Yes
- H2O Solubility at 40° C. ([2]; 40° C.): Yes
- Krafft point (Tk) ([2]; 40° C.): Below Tk
- CMC at 40° C. (micelle formation) ([3]; 40° C.): Yes
Molecule: CCCCCCCCCCN1C[C@H](O)[C@H]([C@H](O)[C@H](O)CO)OC1=O [N-Decyl D-Glucocarbamate]

- Surface tension reduction (γ) at 40° C. ([1]; 40° C.): Yes
- H2O Solubility at 40° C. ([2]; 40° C.): Yes
- Krafft point (Tk) ([2]; 40° C.): Below Tk
- water solubility ([9]; compared to other known glycacarbamate and glycaurea compounds): enhanced water solubility
- turbidity ([9]; in aqueous personal product and detergent compositions): less turbid
- CMC at 40° C. (micelle formation) ([3]; 40° C.): Yes
Molecule: CCCCCCCCCCCCN1C[C@H](O)[C@H]([C@H](O[C@H]2O[C@H](CO)[C@@H](O)[C@H](O)[C@H]2O)[C@H](O)CO)OC1=O [N-Dodecyl D-Maltocarbamate]

Molecule: CCCCCCCCCCCC(=O)N(CCO)CCO [Lauramide DEA, lauric diethanolamide, reference compound]
- Foam Stability ([8]; 4.0% thickener): Yes
- Viscosity (Centipoise) ([8]; 4.0% thickener): 2376 Centipoise

- Surface tension reduction (γ) at 40° C. ([1]; with slight heating): Yes
- H2O Solubility at 40° C. ([2]; with slight heating): Yes
- Krafft point (Tk) ([2]; with slight heating): Below Tk
- CMC at 40° C. (micelle formation) ([3]; with slight heating): Yes
Molecule: CCCCCCCCCCCCCCN1C[C@H](O)[C@H]([C@H](O)[C@H](O)CO)OC1=O [N-Tetradecyl D-Glucocarbamate]
- handling and flowing characteristics (in words) [4]: improved the handling and flowing characteristics

- Surface tension reduction (γ) at 40° C. ([1]; 40° C.): Yes
- H2O Solubility at 40° C. ([2]; 40° C.): Yes
- Krafft point (Tk) ([2]; 40° C.): Below Tk
- CMC at 40° C. (micelle formation) ([3]; 40° C.): Yes
Molecule: CCCCCCCCN1C[C@H](O)[C@H]([C@H](O)[C@H](O)CO)OC1=O [N-Octyl D-Glucocarbamate]
